Tests used:
[1] = Pharmacokinetic evaluation after single oral administration to ICR mice; type: in vivo; settings: for half-life / AUC(0-t): mouse, ICR mice, single oral dose 5 mg/kg, plasma; for AUC(0-t): read-out: AUC0-24
Experimental: Pharmacokinetic tests for the compounds of the present invention were conducted as below. After a single oral administration of the compound of the present invention to ICR mice, the concentration of the compound over time was followed up and analyzed.
The compound of the present invention was suspended in 10% DMSO/90% (30% HPbCD aqueous solution) and orally administered to mice at a dose of 5 mg/kg. Blood was collected at a fixed time and plasma was separated. Drug analysis was performed using HPLC (XBridge column C18, Waters, mobile phase 0.1% formic acid:acetonitrile (30:70, %/%)) and MS/MS (ESI positive, MRM). Mouse blood plasma and each commercially available standard solution were mixed at a ratio of 9:1 to prepare and calibrate at concentrations of […] 5,000 ng/mL. In addition, the preparation of QC samples was prepared by mixing the mouse blood plasma and the standard solution for QC at a ratio of 9:1, and prepared to be concentrations of 100, 750 and 2,500 ng/mL. 100 μL of the plasma sample was transferred to a centrifugation tube, and 10 μL of the internal standard solution and 300 μL of methanol were added, followed by mixing for about 30 seconds for pretreatment. The tube was centrifuged at 3,000×g (4° C.) for about 5 minutes, and the supernatant was taken and transferred to an LC vial and injected into the instrument. Then, the concentration of the compound in mouse plasma was quantified by applying a previously validated assay. For pharmacokinetic parameters, the program WinNonlin 5.2 (Pharsight, USA) was used. AUC0-t, AUC0-∞, Cmax, Tmax, and t1/2 were calculated by Noncompartment modeling (best fit). The pharmacokinetic parameter results were expressed as the mean (Mean) and standard deviation (SD), and were statistically processed using the SPSS program (Statistical Package for the Social Sciences, 10.0K, USA).

[2] = system: EGFR^del19+T790M+C797S; assay: EGFR protein degradation test (Western blot) in Ba/F3 cells expressing mutant EGFR del19+T790M+C797S (DTC); type: cell-based; settings: compounds at 0.1 μM and 1 μM, 24 hours, Western blot with EGFR antibody
In short: (§1)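 Ba/F3 cells expressing wild-type EGFR, del19+T790M+C797S or L858R+T790M+C797S EGFR were treated with compound at 0.1 μM and 1 μM for 24 h. Lysates (30 μg) were analysed by SDS-PAGE and EGFR Western blot, with bands quantified densitometrically.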

[3] = target: T1, EGFR^L858R+T790M+C797S (Homo sapiens, UniProt P00533, C797S/L858R/T790M); assay: EGFR protein degradation test (Western blot) in Ba/F3 cells expressing mutant EGFR L858R+T790M+C797S (LTC); type: cell-based; settings: compounds at 0.1 μM and 1 μM, 24 hours, Western blot with EGFR antibody
T1 construct: expressed in transfected cells; host or cells: Ba/F3
In short: as §1

[4] = 74, 76, 77, 80, 81 vs 45, 71, 51, 65, 53
[5] = 69, 70, 75, 78, 82 vs compounds 53 and 65

T1 sequence (P00533 25-1210 T790M/C797S/L858R): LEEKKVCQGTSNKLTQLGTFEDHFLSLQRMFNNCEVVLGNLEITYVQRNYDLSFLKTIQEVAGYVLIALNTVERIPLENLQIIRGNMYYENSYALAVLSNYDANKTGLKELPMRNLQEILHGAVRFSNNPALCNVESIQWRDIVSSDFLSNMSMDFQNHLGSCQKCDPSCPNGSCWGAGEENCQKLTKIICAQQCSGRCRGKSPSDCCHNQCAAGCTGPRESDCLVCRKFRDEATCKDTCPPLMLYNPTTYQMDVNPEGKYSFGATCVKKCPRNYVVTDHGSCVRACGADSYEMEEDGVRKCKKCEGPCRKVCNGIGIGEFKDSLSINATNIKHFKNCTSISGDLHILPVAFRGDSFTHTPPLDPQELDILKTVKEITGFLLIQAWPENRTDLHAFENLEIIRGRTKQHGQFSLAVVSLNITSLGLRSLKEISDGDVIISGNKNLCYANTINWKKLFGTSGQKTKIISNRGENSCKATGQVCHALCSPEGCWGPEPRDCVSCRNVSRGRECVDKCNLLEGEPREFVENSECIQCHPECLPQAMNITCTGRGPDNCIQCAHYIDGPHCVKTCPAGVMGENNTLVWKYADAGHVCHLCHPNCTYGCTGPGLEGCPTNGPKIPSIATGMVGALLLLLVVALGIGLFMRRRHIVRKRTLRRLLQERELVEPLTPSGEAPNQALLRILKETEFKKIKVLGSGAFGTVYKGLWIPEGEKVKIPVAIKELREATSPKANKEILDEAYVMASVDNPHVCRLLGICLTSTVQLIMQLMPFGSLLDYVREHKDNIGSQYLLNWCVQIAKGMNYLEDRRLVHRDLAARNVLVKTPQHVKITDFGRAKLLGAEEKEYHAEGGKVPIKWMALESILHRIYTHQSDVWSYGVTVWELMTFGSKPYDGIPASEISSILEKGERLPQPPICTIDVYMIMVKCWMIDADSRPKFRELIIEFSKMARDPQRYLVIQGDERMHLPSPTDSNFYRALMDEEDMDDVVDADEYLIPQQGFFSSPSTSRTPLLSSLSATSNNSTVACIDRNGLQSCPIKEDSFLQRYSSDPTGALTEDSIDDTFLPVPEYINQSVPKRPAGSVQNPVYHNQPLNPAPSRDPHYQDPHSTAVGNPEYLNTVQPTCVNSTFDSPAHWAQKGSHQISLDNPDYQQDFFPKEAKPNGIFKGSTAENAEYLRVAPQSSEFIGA

Structure (SMILES) | AUC compared to the corresponding compounds [1, 4] | half-life [1] [h] | AUC(0-t) [1] [ng·h/mL] | DTC (EGFR^del19+T790M+C797S) protein degradation [2] | LTC (EGFR^L858R+T790M+C797S) protein degradation [3] | AUC compared to the corresponding compounds [1, 5]
COc1cc(N2CCC(N3CCN(CCNc4cccc5c4C(=O)N(C4CCC(=O)NC4=O)C5=O)CC3)CC2)c(C)cc1Nc1ncc(Cl)c(Nc2ccccc2N(C)S(C)(=O)=O)n1 (centres unmarked) [Compound 74, N-(2-((5-chloro-2-((4-(4-(4-(2-((2-(2,6-dioxopiperidin-3-yl)-1,3-dioxoisoindolin-4-yl)amino)ethyl)piperazin-1-yl)piperidin-1-yl)-2-methoxy-5-methylphenyl)amino)pyrimidin-4-yl)amino)phenyl)-N-methylmethanesulfonamide] | significantly improved AUC | 4.44 | 5520 | − (Protein degradation < 20%) | ++ (Protein degradation > 80%) | 
COc1cc(N2CCN(CC3CCN(C(=O)[C@H](C)Nc4cccc5c4C(=O)N(C4CCC(=O)NC4=O)C5=O)CC3)CC2)c(C)cc1Nc1ncc(Cl)c(Nc2ccccc2N(C)S(C)(=O)=O)n1 (stereo partly drawn) [Compound 75, N-(2-((5-chloro-2-((4-(4-((1-((2-(2,6-dioxopiperidin-3-yl)-1,3-dioxoisoindolin-4-yl)-L-alanyl)piperidin-4-yl)methyl)piperazin-1-yl)-2-methoxy-5-methylphenyl)amino)pyrimidin-4-yl)amino)phenyl)-N-methylmethanesulfonamide] |  | 2.82 | 2040 | ++ (Protein degradation > 80%) | ++ (Protein degradation > 80%) | significantly improved AUC
COc1cc(N2CCC(N3CCN(CC4CCN(c5ccc6c(c5)C(=O)N(C5CCC(=O)NC5=O)C6=O)CC4)CC3)CC2)c(C)cc1Nc1ncc(Cl)c(Nc2ccccc2N(C)S(C)(=O)=O)n1 (centres unmarked) [Compound 76, N-(2-((5-chloro-2-((4-(4-(4-((1-(2-(2,6-dioxopiperidin-3-yl)-1,3-dioxoisoindolin-5-yl)piperidin-4-yl)methyl)piperazin-1-yl)piperidin-1-yl)-2-methoxy-5-methylphenyl)amino)pyrimidin-4-yl)amino)phenyl)-N-methylmethanesulfonamide] | significantly improved AUC | 6.66 | 5240 | + (Protein degradation 20~80%) | ++ (Protein degradation > 80%) | 
COc1cc(N2CCC(N3CCN(CCC4CCN(c5ccc6c(c5)C(=O)N(C5CCC(=O)NC5=O)C6=O)CC4)CC3)CC2)c(C)cc1Nc1ncc(Cl)c(Nc2ccccc2N(C)S(C)(=O)=O)n1 (centres unmarked) [Compound 77, N-(2-((5-chloro-2-((4-(4-(4-(2-(1-(2-(2,6-dioxopiperidin-3-yl)-1,3-dioxoisoindolin-5-yl)piperidin-4-yl)ethyl)piperazin-1-yl)piperidin-1-yl)-2-methoxy5-methylphenyl)amino)pyrimidin-4-yl)amino)phenyl)-N-methylmethanesulfonamide] | significantly improved AUC | 2.96 | 1170 | + (Protein degradation 20~80%) | ++ (Protein degradation > 80%) | 
COc1cc(N2CCC(CN3CCN(C(=O)[C@H](C)Nc4cccc5c4C(=O)N(C4CCC(=O)NC4=O)C5=O)CC3)CC2)c(C)cc1Nc1ncc(Cl)c(Nc2ccccc2N(C)S(C)(=O)=O)n1 (stereo partly drawn) [Compound 78, N-(2-((5-chloro-2-((4-(4-((4-((2-(2,6-dioxopiperidin-3-yl)-1,3-dioxoisoindolin-4-yl)-L-alanyl)piperazin-1-yl)methyl)piperidin-1-yl)-2-methoxy-5-methylphenyl)amino)pyrimidin-4-yl)amino)phenyl)-N-methylmethanesulfonamide] |  | 3.75 | 5740 | ++ (Protein degradation > 80%) | ++ (Protein degradation > 80%) | significantly improved AUC
COc1cc(N2CCC(CN3CCN(c4ccc5c(c4)C(=O)N(C4CCC(=O)NC4=O)C5=O)CC3)CC2)c(C)cc1Nc1ncc(Cl)c(Nc2ccccc2N(C)S(C)(=O)=O)n1 (centres unmarked) [Compound 79, N-(2-((5-chloro-2-((4-(4-((4-(2-(2,6-dioxopiperidin-3-yl)-1,3-dioxoisoindolin-5-yl)piperazin-1-yl)methyl)piperidin-1-yl)-2-methoxy-5-methylphenyl)amino)pyrimidin-4-yl)amino)phenyl)-N-methylmethanesulfonamide] |  | 3.47 | 1130 | − (Protein degradation < 20%) | + (Protein degradation 20~80%) | 
COc1cc(N2CCN(CC3CCN(C(=O)CNc4cccc5c4C(=O)N(C4CCC(=O)NC4=O)C5=O)CC3)CC2)c(C)cc1Nc1ncc(Cl)c(Nc2ccccc2N(C)S(C)(=O)=O)n1 (centres unmarked) [Compound 80, N-(2-((5-chloro-2-((4-(4-((1-((2-(2,6-dioxopiperidin-3-yl)-1,3-dioxoisoindolin-4-yl)glycyl)piperidin-4-yl)methyl)piperazin-1-yl)-2-methoxy-5-methylphenyl)amino)pyrimidin-4-yl)amino)phenyl)-N-methylmethanesulfonamide] | significantly improved AUC | 3.55 | 1040 | ++ (Protein degradation > 80%) | ++ (Protein degradation > 80%) | 
COc1cc(N2CCN(CC3CCN(C(=O)COc4cccc5c4C(=O)N(C4CCC(=O)NC4=O)C5=O)CC3)CC2)c(C)cc1Nc1ncc(Cl)c(Nc2ccccc2N(C)S(C)(=O)=O)n1 (centres unmarked) [Compound 81, N-(2-((5-chloro-2-((4-(4-((1-(2-((2-(2,6-dioxopiperidin-3-yl)-1,3-dioxoisoindolin-4-yl)oxy)acetyl)piperidin-4-yl)methyl)piperazin-1-yl)-2-methoxy-5-methylphenyl)amino)pyrimidin-4-yl)amino)phenyl)-N-methylmethanesulfonamide] | significantly improved AUC | 4.73 | 502 | ++ (Protein degradation > 80%) | ++ (Protein degradation > 80%) | 
COc1cc(N2CCN(CC3CCN(C(=O)[C@H](C)Oc4cccc5c4C(=O)N(C4CCC(=O)NC4=O)C5=O)CC3)CC2)c(C)cc1Nc1ncc(Cl)c(Nc2ccccc2N(C)S(C)(=O)=O)n1 (stereo partly drawn) [Compound 82, N-(2-((5-chloro-2-((4-(4-((1-((2S)-2-((2-(2,6-dioxopiperidin-3-yl)-1,3-dioxoisoindolin-4-yl)oxy)propanoyl)piperidin-4-yl)methyl)piperazin-1-yl)-2-methoxy-5-methylphenyl)amino)pyrimidin-4-yl)amino)phenyl)-N-methylmethanesulfonamide] |  | 6.03 | 366 | ++ (Protein degradation > 80%) | ++ (Protein degradation > 80%) | significantly improved AUC

Source: patent US20230322723A1, “COMPOUNDS FOR SUPPRESSING EGFR MUTANT CANCER AND PHARMACEUTICAL USE THEREOF” (J2H BIOTECH INC., priority 2020, published 2023)
